{
  "source": "patent US6632797B2",
  "about": "“Method of treating angiogenesis” (priority 1996, dated 2003)",
  "key": {"[1]": {"system": "Vascular permeability factor (VPF)", "experiment": "VPF-induced vascular permeability, Evans Blue distribution in guinea pigs", "format": "in vivo, guinea pig", "conditions": "5 mg/kg intravenous; after 60 minutes; control 62 mm^2", "method": "Vascular permeability factor (VPF) promotes extravasation and oedema formation. Evans Blue was injected intravenously to 15 guinea pigs. This dye binds to plasma proteins and thereby provides a marker for vascular permeability to macromolecules.\n50 mg of VPF was injected to each animal and the distribution of Evans Blue was measured."}, "[2]": {"system": "heterotopic bone formation", "experiment": "Rabbit heterotopic bone (HB) development model", "format": "in vivo", "design": "key: ++++: very marked amount of HB; +++: marked amount of HB; ++: between slight and marked amount of HB; +: slight amount of HB; 0: none amount of HB", "conditions": "1 mg/kg/hour s.c. osmotic minipump, day 42", "method": "Heterotopic bone formation is caused by a local growth and formation of bone. One essential component in this process is the activation of growth factors.\nThe right hind limb of adult rabbits (weight about 4.0 kg) was immobilized with the knee in extension by means of a plastic splint and an elastic bandage, so that the Vastus intermedius profundus (VIP) muscle was in a shortened position and the hip joint could be moved freely.\nAccording to the standard model the rabbits were treated by removing the splint daily for 2-3 minutes for forcible and rapid manipulation of the knee.\nIP3 was administered via subcutaneously operated osmotic minipumps to three rabbits. The dose level was 1 mg/kg/hour, and the time of application period was 14-21 days. The control group, another three rabbits received NaCl-solution by osmotic minipumps.\nAnteposterior and lateral radiographs were made of the hind limbs of all rabbits weekly throughout the duration of the experiment which lasted 42 days.\nAt the end of the experiment the rabbits were killed with an overdose of Mebunat and the left and right femoral bones of each rabbit were dissected and boiled for macroscopic examination."}, "[3]": {"experiment": "Binding constants to the polyamine spermine", "format": "physicochemical", "conditions": "1:1:5 complex; 0.1 M N-tetramethylbromide at 25° C.", "method": "The interaction between a polyamine, spermine and different triphosphorylated compounds were investigated in order to determin the binding constants. Spermine is a basic polyamine comprising domains of similar basicity to basic domains in growth factors. Spermine and the different phosphorylated compounds forms different complexes and the 1:1:5 complex was used as the complex for determination of binding constants.\nThe following binding constants, log Ks was determined in 0.1 M N-tetramethylbromide at 25° C.: […]"}, "[4]": {"system": "basic fibroblast growth factor (b FGF)", "experiment": "b FGF-induced bone formation on the calvaria of mice", "format": "in vivo", "design": "key to Severeness of bone formation: 0: no bone formation; ++++: severe bone formation", "method": "Injection of basic fibroblast growth factor (b FGF) stimulates osteoblastic activity and leads to bone formation.\nThe osmotic minipumps were implanted on day 1.\nTo the calvaria of each animal, 10 μl of b FGF (concentration 50 μg/ml) was injected four times daily of the period of day 2 to day 4.\nAfter the experimental period of 14 days each animal was investigated macroscopically and the histological preparations were further examined by conventional routines.\nMacroscopically visible bone formation was measured according to scale from\n0 which represents no bone formation to\n++++ which represents severe bone formation"}, "[5]": {"system": "fibroblast growth factor basic (bFGF)", "experiment": "bFGF/Matrigel-induced swelling (tumor-like matrix) in nude mice", "format": "in vivo", "method": "In a procedure similar to example 3 fibroblast growth factor basic (bFGF) was used.\nD-myo-inositol-1,2,6-trisphosphate (IP3) was administered to five mice while another group of five mice, recieving saline, were a control group."}, "Wish tumour cells": {"system": "Wish tumour cells", "experiment": "Wish tumour cell-induced bone tumours on the calvaria of nude mice", "format": "in vivo", "design": "key: +: small and non-severe tumours; ++++: large and severe tumours", "conditions": "120 mg/kg/day osmotic minipump for 14 days; individual animals", "method": "The injection of a specific cell-line Wish tumour cells, induces proliferation of osteoblasts on the calvaria of nude mice leading to bone tumours.\nWish cells (American Type Culture Collection^R, ATCC (R) F-12784 25 CCL WITH×01166) were used for inocculation. Cells were grown on MEM supplemented with 15% FCS, 2% glutamine and streptomycin-penicillin/garamycin. Cells were grown as a monolayer and trypsinised and split in the ratio 1:3 to 1:4. All together 360 million cells were harvested and suspended in 7 ml for a final concentration of approximately 10 million cells per 0.2 ml.\nThe osmotic pumps with IP3 and saline respectively were implanted on the same day as the inocculation of Wish-cells were performed.\nA 27 gauge needle on a 1 ml syringe was used for the injections of Wish-cells. The injection was done under the skin of the calvaria scratching the periosteum.\nAt day 13 all animals were given an intraperiotoneal injection of demeclocycline (Sigma Chemicals Co. St Louis). All animals were investigated regarding the occurrence of and size of tumours. The size of tumours were measured according to a scale from\n+ which represents small and non-severe tumours to\n++++ which represents large and severe tumours."}, "scarr formation on skin": {"system": "scarr formation on skin", "experiment": "Scar formation on scratches of the epidermis of a human hand, topical application", "format": "in vivo", "conditions": "topical solution, observation over 10 days", "method": "To two of the scratches a solution comprising IP3 was applied topically while two of the scratches served as controls. Occular investigation was performed every day over a period of 10 days."}},
  "note": "Values joined by “and” are separate entries in the source; they are usually repeats but may differ in a detail not shown here. Equal values may be shown once.",
  "data": [
    {"smiles": "O=P(O)(O)OC1C(O)C(O)C(O)C(OP(=O)(O)O)C1OP(=O)(O)O", "note": "[IP3, D-myo-inositol-1,2,6-trisphosphate]", "values": [
      {"measurement": "average area covered with Evans Blue", "setting": "[1]", "result": 15, "unit": "mm^2"},
      {"measurement": "Amount of HB", "setting": "[2]; application of IP3 14 days, individual rabbits, 1 mg/kg", "result": "+ and 0"},
      {"measurement": "Amount of HB", "setting": "[2]; application of IP3 21 days, individual rabbit", "result": 0},
      {"measurement": "log Ks", "setting": "[3]", "result": 5.16},
      {"measurement": "histological examination of the calvaria", "setting": "[4]; 120 mg/kg/day for 14 days", "result": "anti-angiogenic properties"},
      {"measurement": "Severeness of bone formation", "setting": "[4]; 120 mg/kg/day osmotic minipump for 14 days, individual animals", "result": 0},
      {"measurement": "volume of the formed matrix", "setting": "[5]; Day 1", "result": 180, "unit": "mm^3"},
      {"measurement": "volume of the formed matrix", "setting": "[5]; Day 3", "result": 120, "unit": "mm^3"},
      {"measurement": "volume of the formed matrix", "setting": "[5]; Day 5", "result": 110, "unit": "mm^3"},
      {"measurement": "volume of the formed matrix", "setting": "[5]; Day 7", "result": 120, "unit": "mm^3"},
      {"measurement": "volume of the formed matrix", "setting": "[5]; Day 8", "result": 110, "unit": "mm^3"},
      {"measurement": "volume of the formed matrix", "setting": "[5]; Day 9", "result": 120, "unit": "mm^3"},
      {"measurement": "histological examinations of the animals", "setting": "[5]; group where IP3 was administered", "result": "anti-angiogenic effects"},
      {"measurement": "Severeness of tumours", "setting": "Wish tumour cells", "result": "++++"},
      {"measurement": "scarr formation compared to the control", "setting": "scarr formation on skin", "result": "formed scarr in a delayed manner"}
    ]}
  ]
}
